Data on 22 compounds can be found in patent US20260297102A1, “HETEROCYCLIC COMPOUNDS AS PARP1 INHIBITORS” (Synnovation Therapeutics, Inc., priority 2023, published 2026).

SMILES strings stand for the structures.

For the experiment, the target named is T1, PARP1 (Homo sapiens, UniProt P09874).
T1 construct: HeLa cells (wide-type with PARP1 gene) were purchased from ATCC; host or cells: HeLa
T1 sequence (P09874 whole entry): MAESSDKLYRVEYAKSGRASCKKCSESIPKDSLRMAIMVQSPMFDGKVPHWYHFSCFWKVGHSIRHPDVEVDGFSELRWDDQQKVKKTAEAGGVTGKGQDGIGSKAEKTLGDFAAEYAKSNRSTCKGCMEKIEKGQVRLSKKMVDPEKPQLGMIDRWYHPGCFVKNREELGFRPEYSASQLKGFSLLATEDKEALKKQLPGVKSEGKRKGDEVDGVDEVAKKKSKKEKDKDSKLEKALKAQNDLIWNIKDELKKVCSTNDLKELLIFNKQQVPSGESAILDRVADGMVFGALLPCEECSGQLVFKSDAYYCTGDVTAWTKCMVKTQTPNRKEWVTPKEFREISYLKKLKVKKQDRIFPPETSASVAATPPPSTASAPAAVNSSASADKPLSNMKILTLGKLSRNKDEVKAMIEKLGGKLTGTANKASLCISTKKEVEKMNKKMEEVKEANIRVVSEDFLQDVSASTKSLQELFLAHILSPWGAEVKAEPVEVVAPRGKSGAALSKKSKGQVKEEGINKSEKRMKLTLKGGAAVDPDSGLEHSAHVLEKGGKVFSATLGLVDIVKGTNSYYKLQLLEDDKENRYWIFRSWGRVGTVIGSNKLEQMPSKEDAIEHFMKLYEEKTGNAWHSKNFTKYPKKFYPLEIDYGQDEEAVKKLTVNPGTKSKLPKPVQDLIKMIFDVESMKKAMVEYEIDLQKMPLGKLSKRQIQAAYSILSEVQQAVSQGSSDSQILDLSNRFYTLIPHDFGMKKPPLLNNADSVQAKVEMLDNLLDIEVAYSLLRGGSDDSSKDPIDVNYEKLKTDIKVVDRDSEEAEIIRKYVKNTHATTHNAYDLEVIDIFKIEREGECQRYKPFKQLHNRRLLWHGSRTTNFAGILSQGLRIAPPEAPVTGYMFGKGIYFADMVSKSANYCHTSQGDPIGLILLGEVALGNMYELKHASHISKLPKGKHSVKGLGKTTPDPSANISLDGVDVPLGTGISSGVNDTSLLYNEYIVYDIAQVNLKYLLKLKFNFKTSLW
Briefly: In-Cell Western Measurement of PARylation in PARP1 WT and Knockout Cells (HeLa_WT). The class given is cell-based. The following applies: HeLa cells (wild-type PARP1); suppression of hydrogen peroxide-induced PARylation; 60 min pre-treatment, 10 mM H2O2 for 15 min; read-out: HeLa_WT_IC50. As to the method:
The purpose of this cell-based assay is to measure the potency and selectivity of synthesized PARP inhibitors in suppressing hydrogen peroxide-induced PARylation in cells with and without PARP1 expression. Several cell lines were used in this assay. HeLa cells (wide-type with PARP1 gene) were purchased from ATCC. The HAP1 cell line without the PARP1 gene (#HZGHC003943c006) was purchased from Horizon Discovery. Cells were cultured using complete medium containing 10% fetal bovine serum. One day before the assay, cells were seeded in 96-well plates at the density of 20,000 cells per well in 80 uL complete medium. Compounds were dissolved using DMSO and diluted to the working concentrations using complete medium. Cells were pre-treated with compounds for 60 min and then stimulated with 10 mM hydrogen peroxide for 15 min. After stimulation, cells were immediately fixed using ice-cold methanol for 20 min. After fixation, cells were washed using 1×PBST buffer for 3 times, 5 min each time, to eliminate residual methanol. Cells were blocked for 1 h at room temperature in blocking buffer (10% goat serum, 1% BSA, 0.1% Triton X-100 in PBST). Primary antibody was diluted in blocking buffer at 50 uL per well. Cells were incubated with the primary antibody (Adipogen, AG-20T-0001-M001, 1:300) at 4° C. for 18 h. The wells were then washed using 1×PBST for 3 times, 5 min each time. IRDye® 680RD Goat anti-Mouse IgG (H+L) secondary antibody was diluted at 1/1000 using the diluent buffer and added at 50 uL per well. Secondary antibody incubation was for 1 h at room temperature. Cells were then washed using 1×PBST for 3 times, 5 min each time. The signal was detected and analyzed using LI-COR Odyssey DLx Imaging system. Data were collected and further processed using GraphPad Prism for IC50 estimation.
As for `CCN1C(=O)Nc2cc(CN3CCN(c4ccc(C(=O)N[C@H]5[C@@H]6COC[C@@H]65)nc4C)CC3)cc3ncnc1c23` [Compound 21, N-((1R,5S,6r)-3-oxabicyclo[3.1.0]hexan-6-yl)-5-(4-((3-ethyl-2-oxo-2,3-dihydro-1H-pyrimido[4,5,6-de]quinazolin-8-yl)methyl)piperazin-1-yl)-6-methylpicolinamide], the IC50 is not above 10 nM. `CCN1C(=O)Nc2c(F)c(CN3CCN(c4ccc(C(=O)NCCO)nc4C)CC3)cc3ncnc1c23` [Compound 7, 5-(4-((3-Ethyl-9-fluoro-2-oxo-2,3-dihydro-1H-pyrimido[4,5,6-de]quinazolin-8-yl)methyl)piperazin-1-yl)-N-(2-hydroxyethyl)-6-methylpicolinamide]: the IC50 is not above 10 nM. On to `CCN1C(=O)Nc2c(F)c(CN3CCN(c4ccc(C(=O)N[C@H]5C[C@H](O)C5)nc4C)CC3)cc3ncnc1c23` [Compound 10, 5-(4-((3-Ethyl-9-fluoro-2-oxo-2,3-dihydro-1H-pyrimido[4,5,6-de]quinazolin-8-yl)methyl)piperazin-1-yl)-N-((1r,3r)-3-hydroxycyclobutyl)-6-methylpicolinamide], for which the IC50 is not above 10 nM. In the case of `CCN1C(=O)Nc2cc(CN3CCN(c4ccc(C(=O)NCC#N)nc4C)CC3)cc3ncnc1c23` [Compound 15, N-(cyanomethyl)-5-(4-((3-ethyl-2-oxo-2,3-dihydro-1H-pyrimido[4,5,6-de]quinazolin-8-yl)methyl)piperazin-1-yl)-6-methylpicolinamide], the IC50 is not above 10 nM. Turning to `CCN1C(=O)Nc2cc(CN3CCN(c4ccc(C(=O)NC5(CC#N)CC5)nc4C)CC3)cc3ncnc1c23` [Compound 26, N-(1-(cyanomethyl)cyclopropyl)-5-(4-((3-ethyl-2-oxo-2,3-dihydro-1H-pyrimido[4,5,6-de]quinazolin-8-yl)methyl)piperazin-1-yl)-6-methylpicolinamide], the IC50 was not above 10 nM. With `CCN1C(=O)Nc2cc(CN3CCN(c4ccc(C(=O)N[C@H]5C[C@H](O)C5)nc4C)CC3)cc3ncnc1c23` [Compound 20, 5-(4-((3-ethyl-2-oxo-2,3-dihydro-1H-pyrimido[4,5,6-de]quinazolin-8-yl)methyl)piperazin-1-yl)-N-((1r,3r)-3-hydroxycyclobutyl)-6-methylpicolinamide], the IC50 was not above 10 nM. In the case of `CNC(=O)c1ccc(N2CCN(Cc3cc4ncc5c6c4c(c3F)NC(=O)N6CCC5)CC2)c(C)n1` [Compound 5, 5-(4-((7-Fluoro-5-oxo-2,3,5,6-tetrahydro-1H-[1,6]naphthyridino[1,8,7-cde]quinazolin-8-yl)methyl)piperazin-1-yl)-N,6-dimethylpicolinamide] it was not above 10 nM; in that of `CCN1C(=O)Nc2cc(CN3CCN(c4ccc(C(=O)NC5CCC5)nc4C)CC3)cc3ncnc1c23` [Compound 18, N-cyclobutyl-5-(4-((3-ethyl-2-oxo-2,3-dihydro-1H-pyrimido[4,5,6-de]quinazolin-8-yl)methyl)piperazin-1-yl)-6-methylpicolinamide], not above 10 nM; in that of `Cc1nc(C(=O)NC2CC2)ccc1N1CCN(Cc2cc3ncc4c5c3c(c2F)NC(=O)N5CCC4)CC1` [Compound 6, N-Cyclopropyl-5-(4-((7-fluoro-5-oxo-2,3,5,6-tetrahydro-1H-[1,6]naphthyridino[1,8,7-cde]quinazolin-8-yl)methyl)piperazin-1-yl)-6-methylpicolinamide], not above 10 nM. Turning to `CCN1C(=O)Nc2cc(CN3CCN(c4ccc(C(=O)N[C@H]5C[C@H](C#N)C5)nc4C)CC3)cc3ncnc1c23` [Compound 24, N-((1r,3r)-3-cyanocyclobutyl)-5-(4-((3-ethyl-2-oxo-2,3-dihydro-1H-pyrimido[4,5,6-de]quinazolin-8-yl)methyl)piperazin-1-yl)-6-methylpicolinamide], the IC50 is not above 10 nM.

In the case of `Cc1nc(C(=O)NC2CC2)ccc1N1CCN(Cc2cc3nn4c5c3c(c2F)NC(=O)N5CCC4)CC1` [Compound 2, N-Cyclopropyl-5-(4-((7-fluoro-9-oxo-2,3,8,9-tetrahydro-1H-3a,4,8,9a-tetraazacyclopenta[def]phenanthren-6-yl)methyl)piperazin-1-yl)-6-methylpicolinamide], the IC50 is 10 to 100 nM. For the compound `Cc1nc(C(=O)NC2CC2)ccc1N1CCN(Cc2cc3ncc4c5c3c(c2F)NC(=O)N5CCO4)CC1` [Compound 4, N-Cyclopropyl-5-(4-((6-fluoro-4-oxo-2,3,4,5-tetrahydro-1-oxa-3a,5,9-triazapyren-7-yl)methyl)piperazin-1-yl)-6-methylpicolinamide], the IC50 is not above 10 nM. With `CNC(=O)c1ccc(N2CCN(Cc3cc4nn5c6c4c(c3F)NC(=O)N6CCC5)CC2)c(C)n1` [Compound 1, 5-(4-((7-Fluoro-9-oxo-2,3,8,9-tetrahydro-1H-3a,4,8,9a-tetraazacyclopenta[def]phenanthren-6-yl)methyl)piperazin-1-yl)-N,6-dimethylpicolinamide], the IC50 was 10 to 100 nM. With `CCN1C(=O)Nc2cc(CN3CCN(c4ccc(C(=O)NCCO)nc4C)CC3)cc3ncnc1c23` [Compound 13, 5-(4-((3-Ethyl-2-oxo-2,3-dihydro-1H-pyrimido[4,5,6-de]quinazolin-8-yl)methyl)piperazin-1-yl)-N-(2-hydroxyethyl)-6-methylpicolinamide], the IC50 is not above 10 nM. `CCN1C(=O)Nc2cc(CN3CCN(c4ccc(C(=O)N[C@H]5C[C@@H](C#N)C5)nc4C)CC3)cc3ncnc1c23` [Compound 25, N-((1s,3s)-3-cyanocyclobutyl)-5-(4-((3-ethyl-2-oxo-2,3-dihydro-1H-pyrimido[4,5,6-de]quinazolin-8-yl)methyl)piperazin-1-yl)-6-methylpicolinamide]: the IC50 was not above 10 nM.

Consider `CNC(=O)c1ccc(N2CCN(Cc3cc4ncc5c6c4c(c3F)NC(=O)N6CCO5)CC2)c(C)n1` [Compound 3, 5-(4-((6-Fluoro-4-oxo-2,3,4,5-tetrahydro-1-oxa-3a,5,9-triazapyren-7-yl)methyl)piperazin-1-yl)-N,6-dimethylpicolinamide], for which the IC50 is not above 10 nM. The value for `CCN1C(=O)Nc2cc(CN3CCN(c4ccc(C(=O)NC5(C#N)CC5)nc4C)CC3)cc3ncnc1c23` [Compound 17, N-(1-cyanocyclopropyl)-5-(4-((3-ethyl-2-oxo-2,3-dihydro-1H-pyrimido[4,5,6-de]quinazolin-8-yl)methyl)piperazin-1-yl)-6-methylpicolinamide] was not above 10 nM; that for `CCN1C(=O)Nc2cc(CN3CCN(c4ccc(C(=O)NCCC#N)nc4C)CC3)cc3ncnc1c23` [Compound 14, N-(2-cyanoethyl)-5-(4-((3-ethyl-2-oxo-2,3-dihydro-1H-pyrimido[4,5,6-de]quinazolin-8-yl)methyl)piperazin-1-yl)-6-methylpicolinamide] was not above 10 nM; that for `CCN1C(=O)Nc2c(F)c(CN3CCN(c4ccc(C(=O)NCCC#N)nc4C)CC3)cc3ncnc1c23` [Compound 8, N-(2-cyanoethyl)-5-(4-((3-ethyl-9-fluoro-2-oxo-2,3-dihydro-1H-pyrimido[4,5,6-de]quinazolin-8-yl)methyl)piperazin-1-yl)-6-methylpicolinamide] was not above 10 nM. As for `CCN1C(=O)Nc2cc(CN3CCN(c4ccc(C(=O)N[C@H]5C[C@@H](O)C5)nc4C)CC3)cc3ncnc1c23` [Compound 19, 5-(4-((3-ethyl-2-oxo-2,3-dihydro-1H-pyrimido[4,5,6-de]quinazolin-8-yl)methyl)piperazin-1-yl)-N-((1s,3s)-3-hydroxycyclobutyl)-6-methylpicolinamide], the IC50 is not above 10 nM. For the compound `CCN1C(=O)Nc2cc(CN3CCN(c4ccc(C(=O)NC5CC5)nc4C)CC3)cc3ncnc1c23` [Compound 16, N-cyclopropyl-5-(4-((3-ethyl-2-oxo-2,3-dihydro-1H-pyrimido[4,5,6-de]quinazolin-8-yl)methyl)piperazin-1-yl)-6-methylpicolinamide], the IC50 is not above 10 nM. Regarding `CCN1C(=O)Nc2c(F)c(CN3CCN(c4ccc(C(=O)NCC#N)nc4C)CC3)cc3ncnc1c23` [Compound 9, N-(cyanomethyl)-5-(4-((3-ethyl-9-fluoro-2-oxo-2,3-dihydro-1H-pyrimido[4,5,6-de]quinazolin-8-yl)methyl)piperazin-1-yl)-6-methylpicolinamide], the IC50 is not above 10 nM.
